Assay results from PubChem BioAssay (NCI).
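The compound was tested at five concentrations on cells cultured in 96-well plates, with a 48-hour exposure period. TGI is the concentration that stops growth completely.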

Tests used:
Assay in all cases: NCI-60 cell line screen, 48 h
786-0 renal = system: 786-0 renal
A498 renal = system: A498 renal
A549 NSCLC = system: A549 NSCLC
ACHN renal = system: ACHN renal
BT-549 breast = system: BT-549 breast
CAKI-1 renal = system: CAKI-1 renal
CCRF-CEM leukemia = system: CCRF-CEM leukemia
COLO 205 colon = system: COLO 205 colon
DU-145 prostate = system: DU-145 prostate
EKVX NSCLC = system: EKVX NSCLC
HCC-2998 colon = system: HCC-2998 colon
HCT-116 colon = system: HCT-116 colon
HCT-15 colon = system: HCT-15 colon
HL-60(TB) leukemia = system: HL-60(TB) leukemia
HOP-62 NSCLC = system: HOP-62 NSCLC
HOP-92 NSCLC = system: HOP-92 NSCLC
HS 578T breast = system: HS 578T breast
HT29 colon = system: HT29 colon
IGROV1 ovarian = system: IGROV1 ovarian
K-562 leukemia = system: K-562 leukemia
KM12 colon = system: KM12 colon
LOX IMVI melanoma = system: LOX IMVI melanoma
M14 melanoma = system: M14 melanoma
MALME-3M melanoma = system: MALME-3M melanoma
MCF7 breast = system: MCF7 breast
MDA-MB-231 breast = system: MDA-MB-231 breast
MDA-MB-435 = system: MDA-MB-435
MDA-N = system: MDA-N
MOLT-4 leukemia = system: MOLT-4 leukemia
NCI-H226 lung = system: NCI-H226 lung
NCI-H23 lung = system: NCI-H23 lung
NCI-H460 lung = system: NCI-H460 lung
NCI-H522 lung = system: NCI-H522 lung
NCI/ADR-RES ovarian = system: NCI/ADR-RES ovarian
OVCAR-3 ovarian = system: OVCAR-3 ovarian
OVCAR-4 ovarian = system: OVCAR-4 ovarian
OVCAR-5 ovarian = system: OVCAR-5 ovarian
OVCAR-8 ovarian = system: OVCAR-8 ovarian
PC-3 prostate = system: PC-3 prostate
RPMI-8226 leukemia = system: RPMI-8226 leukemia
RXF 393 renal = system: RXF 393 renal
SF-268 CNS = system: SF-268 CNS
SF-295 CNS = system: SF-295 CNS
SF-539 CNS = system: SF-539 CNS
SK-MEL-2 melanoma = system: SK-MEL-2 melanoma
SK-MEL-28 melanoma = system: SK-MEL-28 melanoma
SK-MEL-5 melanoma = system: SK-MEL-5 melanoma
SN12C renal = system: SN12C renal
SNB-19 CNS = system: SNB-19 CNS
SNB-75 CNS = system: SNB-75 CNS
SR leukemia = system: SR leukemia
SW-620 colon = system: SW-620 colon
T-47D breast = system: T-47D breast
TK-10 renal = system: TK-10 renal
U251 CNS = system: U251 CNS
UACC-257 melanoma = system: UACC-257 melanoma
UACC-62 melanoma = system: UACC-62 melanoma
UO-31 renal = system: UO-31 renal
SK-OV-3 ovarian = system: SK-OV-3 ovarian

SMILES: N#Cc1ccnc(C(=O)N2CCCC2C(=O)O)c1 (stereo not given)
- TGI (786-0 renal): > 100 µM
- TGI (A498 renal): > 100 µM
- TGI (A549 NSCLC): > 100 µM
- TGI (ACHN renal): > 100 µM
- TGI (BT-549 breast): > 100 µM
- TGI (CAKI-1 renal): > 100 µM
- TGI (CCRF-CEM leukemia): > 100 µM
- TGI (COLO 205 colon): > 100 µM
- TGI (DU-145 prostate): > 100 µM
- TGI (EKVX NSCLC): > 100 µM
- TGI (HCC-2998 colon): > 100 µM
- TGI (HCT-116 colon): > 100 µM
- TGI (HCT-15 colon): > 100 µM
- TGI (HL-60(TB) leukemia): > 100 µM
- TGI (HOP-62 NSCLC): > 100 µM
- TGI (HOP-92 NSCLC): > 100 µM
- TGI (HS 578T breast): > 100 µM
- TGI (HT29 colon): > 100 µM
- TGI (IGROV1 ovarian): > 100 µM
- TGI (K-562 leukemia): > 100 µM
- TGI (KM12 colon): > 100 µM
- TGI (LOX IMVI melanoma): > 100 µM
- TGI (M14 melanoma): > 100 µM
- TGI (MALME-3M melanoma): > 100 µM
- TGI (MCF7 breast): > 100 µM
- TGI (MDA-MB-231 breast): > 100 µM
- TGI (MDA-MB-435): > 100 µM
- TGI (MDA-N): > 100 µM
- TGI (MOLT-4 leukemia): > 100 µM
- TGI (NCI-H226 lung): > 100 µM
- TGI (NCI-H23 lung): > 100 µM
- TGI (NCI-H460 lung): > 100 µM
- TGI (NCI-H522 lung): > 100 µM
- TGI (NCI/ADR-RES ovarian): > 100 µM
- TGI (OVCAR-3 ovarian): > 100 µM
- TGI (OVCAR-4 ovarian): > 100 µM
- TGI (OVCAR-5 ovarian): > 100 µM
- TGI (OVCAR-8 ovarian): > 100 µM
- TGI (PC-3 prostate): > 100 µM
- TGI (RPMI-8226 leukemia): > 100 µM
- TGI (RXF 393 renal): > 100 µM
- TGI (SF-268 CNS): > 100 µM
- TGI (SF-295 CNS): > 100 µM
- TGI (SF-539 CNS): > 100 µM
- TGI (SK-MEL-2 melanoma): > 100 µM
- TGI (SK-MEL-28 melanoma): > 100 µM
- TGI (SK-MEL-5 melanoma): > 100 µM
- TGI (SN12C renal): > 100 µM
- TGI (SNB-19 CNS): > 100 µM
- TGI (SNB-75 CNS): > 100 µM
- TGI (SR leukemia): > 100 µM
- TGI (SW-620 colon): > 100 µM
- TGI (T-47D breast): > 100 µM
- TGI (TK-10 renal): > 100 µM
- TGI (U251 CNS): > 100 µM
- TGI (UACC-257 melanoma): > 100 µM
- TGI (UACC-62 melanoma): > 100 µM
- TGI (UO-31 renal): > 100 µM

SMILES: O=c1n(CCCN2CCOCC2)nc2n1-c1ccc3ccccc3c1SC2
- TGI (786-0 renal): 38.3 µM
- TGI (A498 renal): > 100 µM
- TGI (A549 NSCLC): > 100 µM
- TGI (BT-549 breast): > 100 µM
- TGI (CAKI-1 renal): > 100 µM
- TGI (CCRF-CEM leukemia): > 100 µM
- TGI (COLO 205 colon): 7.49 µM
- TGI (DU-145 prostate): > 100 µM
- TGI (EKVX NSCLC): > 100 µM
- TGI (HCT-116 colon): > 100 µM
- TGI (HCT-15 colon): 67.2 µM
- TGI (HL-60(TB) leukemia): 97.8 µM
- TGI (HOP-62 NSCLC): > 100 µM
- TGI (HOP-92 NSCLC): > 100 µM
- TGI (HS 578T breast): > 100 µM
- TGI (HT29 colon): 41.2 µM
- TGI (IGROV1 ovarian): > 100 µM
- TGI (K-562 leukemia): > 100 µM
- TGI (KM12 colon): > 100 µM
- TGI (LOX IMVI melanoma): 53 µM
- TGI (MCF7 breast): > 100 µM
- TGI (MDA-MB-435): > 100 µM
- TGI (MDA-N): 24.1 µM
- TGI (MOLT-4 leukemia): > 100 µM
- TGI (NCI-H226 lung): > 100 µM
- TGI (NCI-H460 lung): 81.1 µM
- TGI (NCI-H522 lung): 52.3 µM
- TGI (NCI/ADR-RES ovarian): > 100 µM
- TGI (OVCAR-3 ovarian): > 100 µM
- TGI (OVCAR-4 ovarian): > 100 µM
- TGI (OVCAR-5 ovarian): > 100 µM
- TGI (OVCAR-8 ovarian): > 100 µM
- TGI (PC-3 prostate): > 100 µM
- TGI (RPMI-8226 leukemia): 80.8 µM
- TGI (RXF 393 renal): > 100 µM
- TGI (SF-295 CNS): 42.1 µM
- TGI (SF-539 CNS): > 100 µM
- TGI (SK-MEL-2 melanoma): > 100 µM
- TGI (SK-MEL-28 melanoma): > 100 µM
- TGI (SK-MEL-5 melanoma): 47.7 µM
- TGI (SK-OV-3 ovarian): > 100 µM
- TGI (SN12C renal): > 100 µM
- TGI (SNB-19 CNS): > 100 µM
- TGI (SNB-75 CNS): > 100 µM
- TGI (SR leukemia): > 100 µM
- TGI (SW-620 colon): > 100 µM
- TGI (T-47D breast): > 100 µM
- TGI (TK-10 renal): > 100 µM
- TGI (U251 CNS): > 100 µM
- TGI (UACC-257 melanoma): > 100 µM
- TGI (UACC-62 melanoma): 47.2 µM
- TGI (UO-31 renal): 45.7 µM
